Publication PMC9873984, “Membrane cholesterol regulates inhibition and substrate transport by the glycine transporter, GlyT2” (Life Science Alliance, 2023)
Substitutions are numbered along the chain they refer to.

Experiments:
GlyT2 F515W mutant = biological target: T1, GlyT2 F515W mutant (Homo sapiens, UniProt Q9Y345, F515W); assay: Inhibitor washout time course (reversibility); type: cell-based; parameters: expressed in transfected cells; host or cells: Xenopus laevis oocytes injected with mutant RNA (pOTV vector); conditions: for Recovery at 30 Min / Half-life (transport current recovery): washout after 4 min IC50 concentration
T1 sequence (Q9Y345 1-797 F515W): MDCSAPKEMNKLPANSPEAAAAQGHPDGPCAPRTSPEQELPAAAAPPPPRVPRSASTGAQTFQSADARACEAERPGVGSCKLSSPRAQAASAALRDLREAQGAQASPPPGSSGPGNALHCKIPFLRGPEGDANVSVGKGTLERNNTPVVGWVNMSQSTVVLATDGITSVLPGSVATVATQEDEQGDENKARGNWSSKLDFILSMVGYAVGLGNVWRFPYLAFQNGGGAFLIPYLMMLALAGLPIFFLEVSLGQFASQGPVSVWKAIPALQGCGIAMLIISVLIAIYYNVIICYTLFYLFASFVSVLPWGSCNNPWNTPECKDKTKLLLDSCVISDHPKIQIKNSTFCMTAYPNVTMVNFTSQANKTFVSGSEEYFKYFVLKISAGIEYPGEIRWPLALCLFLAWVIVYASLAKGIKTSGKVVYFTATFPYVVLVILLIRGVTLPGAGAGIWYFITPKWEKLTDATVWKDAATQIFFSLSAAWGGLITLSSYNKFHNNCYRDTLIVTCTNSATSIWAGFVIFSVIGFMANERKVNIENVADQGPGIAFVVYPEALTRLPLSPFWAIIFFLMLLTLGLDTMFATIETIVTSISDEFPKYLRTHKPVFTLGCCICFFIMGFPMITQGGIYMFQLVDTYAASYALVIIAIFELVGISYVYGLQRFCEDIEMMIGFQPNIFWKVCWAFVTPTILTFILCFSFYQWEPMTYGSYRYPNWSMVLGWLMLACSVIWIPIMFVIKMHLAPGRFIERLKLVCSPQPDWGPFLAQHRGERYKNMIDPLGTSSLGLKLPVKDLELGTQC
Procedure: (§1) Reversibility of GlyT2 inhibitors was determined by applying an EC50 concentration of glycine followed by co-application of the inhibitor at an IC50 concentration once a stable current had been achieved. Inhibitors were applied for 4 min as this was sufficient time to produce substantial inhibition for each compound and allowed for their direct comparison. At the conclusion of 4 min (time 0), ND96 buffer was perfused through the recording chamber to wash the oocyte. […] Transport currents were normalized to glycine currents in the absence of inhibitor and converted to % recovery values via Y=It−It=0/Imax−It=0, where Y is % recovery, I is current in nA, Imax is the maximal current produced by the glycine EC50, and t is time in minutes. Washout kinetics were then determined by fitting % recovery values to the first-order rate equation: Y=(Y0−Plateau).e^(−Kt)+Plateau, where Y is the % recovery, Y0 is the point, which crosses the Y-axis (constrained to 0) and increases to the plateau (constrained to between 0 and 100), K is the rate constant (1/t), and t is time in minutes. […] Because of the slowly […] nature of the inhibitors, washout time courses involving cyclodextrin treatment could not be performed on the same cell. […] As these experiments could not occur on the same cell, differences in half-life and maximal recovery were analysed via an unpaired two-tailed t test.

GlyT2 T512A mutant = biological target: T2, GlyT2 T512A mutant (Homo sapiens, UniProt Q9Y345, T512A); assay: Inhibitor washout time course (reversibility); type: cell-based; parameters: expressed in transfected cells; host or cells: Xenopus laevis oocytes injected with mutant RNA (pOTV vector); conditions: for Recovery at 30 Min / Half-life (transport current recovery): washout after 4 min IC50 concentration
T2 sequence (Q9Y345 1-797 T512A): T1 sequence (Q9Y345 1-797 F515W) with T512A, W515F
Procedure: as §1

Row | SMILES | Increase of recovery at 30 min compared to WT (GlyT2 F515W mutant; F515W vs WT) [fold] | Recovery at 30 Min (GlyT2 F515W mutant; F515W) | Increase of recovery after 30 min compared to WT (GlyT2 T512A mutant; T512A vs WT) [fold] | Recovery at 30 Min (GlyT2 T512A mutant; T512A) | Increase in recovery of current 30 min after application, vs WT (GlyT2 F515W mutant; F515W) [%] | Half-life (transport current recovery) (GlyT2 F515W mutant; F515W) | Increase in recovery of current 30 min after application, vs WT (GlyT2 T512A mutant; T512A) [%] | Half-life (transport current recovery) (GlyT2 T512A mutant; T512A)
1 | CCCCCCCC/C=C\CCCCCCCC(=O)O[C@H](CC(=O)[O-])C[N+](C)(C)C [Oleoyl-L-Carnitine, oleoyl-L-carnitine] | 1.3 | 60.1% | 1.8 | 79.4% |  |  |  | 
2 | CCCCCCCC/C=C\CCCCCCCC(=O)N[C@@H](CC(C)C)C(=O)O [Oleoyl-L-Leucine, oleoyl-L-leucine] |  | 70.1 ± 1.9 % |  | 76.2 ± 4.1 % | 19.0 | 2.0 ± 0.2 min | 25.1 | 1.7 ± 0.3 min
3 | CCCCCCCC/C=C\CCCCCCCC(=O)N[C@@H](CCCCN)C(=O)O [Oleoyl-L-Lysine, oleoyl-L-lysine] |  | 57.8 ± 4.1% |  | 63.5 ± 2.0% |  |  |  | 
4 | CCCCCCCC/C=C\CCCCCCCC(=O)N[C@@H](Cc1c[nH]c2ccccc12)C(=O)O [Oleoyl-L-Tryptophan, oleoyl-L-tryptophan] |  | No Recovery |  | No Recovery |  | No Recovery |  | No Recovery
